pEC50: −log10 of the molar value. Structures can show the parent of a compound that is named as a salt.
Key:
hERG = hERG (Homo sapiens, UniProt Q12809); assay: hERG assay (automated patch-clamp); type: biochemical; details: for IC10 (10% inhibitory concentration, hERG tail current): automated patch-clamp
Excerpt: The human ether-a-go-go related gene (hERG) encodes the inward rectifying voltage gated potassium channel in the heart (IKr) which is involved in cardiac repolarization. Inhibition of the hERG current causes QT interval prolongation resulting in potentially fatal ventricular tachyarrhythmia called Torsade de Pointes. A number of drugs have been withdrawn from late stage clinical trials due to these cardiotoxic effects, therefore it is important to identify inhibitors early in drug discovery.
The degree of inhibition (%) was obtained by measuring the tail current amplitude, which is induced by a one second test pulse to −40 mV after a two second pulse to +20 mV, before and after drug incubation (the difference current was normalized to control and multiplied by 100 to obtain the percent of inhibition). Concentration (log) response curves were fitted to a logistic equation (three parameters assuming complete block of the current at very high test compound concentrations) to generate estimates of the 10% inhibitory concentration (IC10). The concentration-response relationship of each compound was constructed from the percentage reductions of current amplitude by sequential concentrations.

Rat PK study = type: in vivo, female Sprague-Dawley rats; details: for AUC(0-t) / Cmax / bioavailability / half-life: female, Sprague-Dawley, plasma, oral dosing; for half-life: read-out: t½ (converted)
Procedure: The pharmacokinetics of compounds were evaluated in female Sprague-Dawley rats via Intravenous and Oral Administration. The iv dose was administered as a slow bolus in the Jugular vein, and oral doses were administered by gavage. The fomulaltion for IV dosing is 20% DMSO and 60% PEG 400 in water, and the PO formulation (suspension) is 1% MC, 0.4% Kolliphor EL in water. The PK time point for the IV arm is 5, 15, 30 min, 1, 2, 4, 6, 8, 12, 24 hours post dose, and for PO arm is 15, 30 min, 1, 2, 4, 6, 8, 12, 24 hours post dose. Approximately 0.2 mL blood will be collected at each time point. Blood of each sample will be transferred into plastic micro centrifuge tubes containing EDTA-K2 and collect plasma within 15 min by centrifugation at 4000 g for 5 minutes in a 4° C. centrifuge. Plasma samples will be stored in polypropylene tubes. The samples will be stored in a freezer at −75±15° C. prior to analysis. Concentrations of compounds in the plasma samples will be analyzed using a LC-MS/MS method. WinNonlin (Phoenix™, version 6.1) or other similar software will be used for pharmacokinetic calculations. The following pharmacokinetic parameters will be calculated, whenever possible from the plasma concentration versus time data: IV administration: C0, CL, Vd, T1/2, AUCinf, AUClast, MRT, Number of Points for Regression; PO administration: Cmax, Tmax, T1/2, AUCinf, AUClast, F %, Number of Points for Regression. The pharmacokinetic data will be described using descriptive statistics such as mean, standard deviation. Additional pharmacokinetic or statistical analysis may be performed at the discretion of the contributing scientist, and will be documented in the data summary

extracellular HBV DNA = assay: HBV DNA assay (real-time qPCR/TaqMan, HepG2.2.15 cells); type: cell-based; details: for pEC50: Hepatitis B virus, 144 h, six days, supernatant HBV DNA copy number, read-out: EC50 (reduction in HBV DNA levels)
Procedure: The assay employs real-time qPCR (TaqMan) to directly measure extracellular HBV DNA copy number. HepG2.2.15 cells were plated in 96-well microtiter plates. Only the interior wells were utilized to reduce “edge effects” observed during cell culture, the exterior wells were filled with complete medium to help minimize sample evaporation. On the following day, the HepG2.2.15 cells were washed and the medium was replaced with complete medium containing various concentrations of a test compound in triplicate. 3TC was used as the positive control, while media alone was added to cells as a negative control (virus control, VC). Three days later, the culture medium was replaced with fresh medium containing the appropriately diluted drug. Six days following the initial administration of the test compound, the cell culture supernatant was collected, treated with pronase and then used in a real-time qPCR/TaqMan assay to determine HBV DNA copy numbers. TDF (tenofovir disoproxil fumarate) is used as a positive control reference. Antiviral activity was calculated from the reduction in HBV DNA levels (IC50).

[1] = Compound cytotoxicity assay (CellTiter-Glo); type: cell-based; details: human; HepG2.2.15 cells, 4 day incubation, top conc. 150 μM
Procedure: (§1) Compounds are diluted with DMSO in 3-fold, 11-point scheme: top conc. of test compound is 30 mM. Add 0.25 μL titrated compounds with Echo 550 to 384-well cytotoxicity assay plates. Add 50 μl HepG2.2.15 cells to each well (4,000 cells per well). The final top conc. is 150 μM after cell addition. For solvent control well (0% effect, ZPE), 0.25 μL DMSO is added (final DMSO conc. is 0.5%). Incubate for 4 days in 37⊏ C, 5% CO2 incubator. After
(§2) 4 day incubation compound cytotoxicity is measured by Promega CellTiter-Glo reagents, briefly: • Equilibrate the Celltiter-Glo reagent to room temperature • Equilibrate the cytotoxicity plates to RT for 20 minutes. • Add 50 μl of CellTiter-Glo Reagent to each well. • Shake 2 minutes on a shaker. • Incubate at room temperature in dark for 10 minutes. • Read plate on Envision Plate reader (0.1 sec integration time/well)
(§3) Such assays, carried out with a range of doses of test compounds, allow the determination of the cellular IC50 of the compounds of the present invention.

HepG2.2.15 cells = assay: Compound cytotoxicity assay (CellTiter-Glo); type: cell-based; details: compared with Compound 203 in WO2015113990
Procedure: as §1, §2, §3

Chain of hERG (Q12809 whole entry): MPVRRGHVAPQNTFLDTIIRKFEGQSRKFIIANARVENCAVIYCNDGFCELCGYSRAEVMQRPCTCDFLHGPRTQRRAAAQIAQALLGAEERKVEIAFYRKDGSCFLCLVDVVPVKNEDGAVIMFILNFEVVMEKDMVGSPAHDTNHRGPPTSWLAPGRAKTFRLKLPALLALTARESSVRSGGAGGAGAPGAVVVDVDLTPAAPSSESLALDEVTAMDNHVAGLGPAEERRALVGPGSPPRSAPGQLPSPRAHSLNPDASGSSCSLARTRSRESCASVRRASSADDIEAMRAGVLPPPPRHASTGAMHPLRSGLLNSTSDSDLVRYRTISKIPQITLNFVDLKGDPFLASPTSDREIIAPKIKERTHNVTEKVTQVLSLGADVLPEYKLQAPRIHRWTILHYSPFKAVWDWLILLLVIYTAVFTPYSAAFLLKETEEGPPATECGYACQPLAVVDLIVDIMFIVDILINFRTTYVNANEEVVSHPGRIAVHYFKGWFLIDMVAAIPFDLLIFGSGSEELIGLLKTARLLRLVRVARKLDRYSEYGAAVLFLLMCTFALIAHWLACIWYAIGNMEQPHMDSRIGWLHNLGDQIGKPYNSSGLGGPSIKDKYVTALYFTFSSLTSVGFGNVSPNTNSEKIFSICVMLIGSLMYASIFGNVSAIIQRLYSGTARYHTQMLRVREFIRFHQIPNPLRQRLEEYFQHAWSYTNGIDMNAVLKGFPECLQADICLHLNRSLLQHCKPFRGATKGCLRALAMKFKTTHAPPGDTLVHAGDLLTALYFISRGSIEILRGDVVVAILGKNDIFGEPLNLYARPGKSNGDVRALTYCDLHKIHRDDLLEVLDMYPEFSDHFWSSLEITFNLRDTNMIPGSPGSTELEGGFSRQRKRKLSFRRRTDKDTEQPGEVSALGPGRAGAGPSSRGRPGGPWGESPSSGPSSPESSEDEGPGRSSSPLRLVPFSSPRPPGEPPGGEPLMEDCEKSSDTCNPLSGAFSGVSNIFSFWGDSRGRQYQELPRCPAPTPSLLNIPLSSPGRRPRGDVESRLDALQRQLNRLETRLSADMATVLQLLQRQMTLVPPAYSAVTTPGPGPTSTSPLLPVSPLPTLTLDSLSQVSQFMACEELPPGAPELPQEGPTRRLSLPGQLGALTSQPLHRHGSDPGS

AUC(0-t) (Rat PK study; 10 mg/kg) [ng·h/mL] | bioavailability (Rat PK study; 10 mg/kg) [%] | Compound | IC10 (10% inhibitory concentration, hERG tail current) (hERG) [nM] | AUC(0-t) (Rat PK study; 20 mg/kg) [ng·h/mL] | Cmax (Rat PK study; 20 mg/kg) [ng/mL] | bioavailability (Rat PK study; 20 mg/kg) [%] | half-life (Rat PK study; 20 mg/kg) [h] | pEC50 (extracellular HBV DNA) | IC50 at 4 days [1] [nM] | also measured
– | – | COCCCOc1cc2c(cc1Cl)-c1c(F)c(=O)c(C(=O)O)cn1[C@H](C(C)(C)C)C2 (single isomer, unassigned) [Example 2A, (+)-6-(tert-butyl)-10-chloro-1-fluoro-9-(3-methoxypropoxy)-2-oxo-6,7-dihydro-2H-pyrido[2,1-a]isoquinoline-3-carboxylic acid] | 10000 | 39600 | 7550 | 58.6 | 4.47 | > 9.00 | > 150000 | cardiac toxicity (in words) (hERG; hERG, compared with Compound 203 in WO2015113990): less cardiac toxicity; oral PK profile (in words) (Rat PK study; oral dosing of 20 mg/kg, compared with Compound 203 in WO2015113990): better oral PK profile; anti-HBV potency (in words) (extracellular HBV DNA; HBV DNA): highly potent; cytotoxicity (in words) (HepG2.2.15 cells): less cytotoxicity
5840 | 24.1 | COCCCOc1cc2c(cc1OC)-c1c(F)c(=O)c(C(=O)O)cn1[C@H](C(C)(C)C)C2 [Example 13] | – | – | – | – | – | – | – | –
9050 | 61.1 | [2H]C([2H])([2H])Oc1cc2c(cc1OCCCOC)C[C@@H](C(C)(C)C)n1cc(C(=O)O)c(=O)c(F)c1-2 [Example 14, (S)-6-(tert-butyl)-1-fluoro-10-(methoxy-d3)-9-(3-methoxypropoxy)-2-oxo-6,7-dihydro-2H-pyrido[2,1-a]isoquinoline-3-carboxylic acid] | – | – | – | – | – | – | – | oral PK profile (in words) (Rat PK study; oral dosing of 10 mg/kg, compared with Example 13): much better oral PK profile
– | – | CC(C)OC(=O)OCOP(=O)(CO[C@H](C)Cn1cnc2c(N)ncnc21)OCOC(=O)OC(C)C [Tenofovir Disoproxil Fumarate, tenofovir disoproxil fumarate, reference compound] | – | – | – | – | – | 7.53 | – | –
– | – | COCCCOc1cc2c(cc1Cl)-c1cc(=O)c(C(=O)O)cn1[C@H](C(C)(C)C)C2 [Compound 203 in WO2015113990, reference compound] | 1000 | 16700 | 2470 | 40 | 3.73 | > 9.00 | 120000 | –

Reference: patent US10501456B2, “Therapeutic agents for the treatment of HBV infection” (Newave Pharmaceutical Inc., priority 2016, dated 2019)
